Source: ChEMBL document CHEMBL3885881, “DrugMatrix”

Species: Rattus norvegicus
Experiment: DrugMatrix - Regimen: Daily Repeat
Format: toxicity, organism-based, Sprague-Dawley
Parameters: regimen Daily Repeat, gender Male, age 6-8 weeks
Conditions: in vivo, po, route oral GAVAGE, […]; for ABSOLUTE BASOPHIL / ABSOLUTE EOSINOPHIL / ABSOLUTE LYMPHOCYTE / ABSOLUTE MONOCYTE / ABSOLUTE SEGMENTED NEUTROPHIL / BASOPHIL / EOSINOPHIL / ERYTHROCYTE COUNT / HEMATOCRIT / HEMOGLOBIN / LEUKOCYTE COUNT / LYMPHOCYTE / MEAN CORPUSCULAR HEMOGLOBIN / MEAN CORPUSCULAR HEMOGLOBIN CONCENTRATION / MEAN CORPUSCULAR VOLUME / MONOCYTE / NEUTROPHIL / NUCLEATED RED BLOOD CELLS / PLATELET COUNT: tissue Blood; for ALANINE AMINOTRANSFERASE / ALBUMIN / ALKALINE PHOSPHATASE / ASPARTATE AMINOTRANSFERASE / BLOOD UREA NITROGEN / CARBON DIOXIDE / CHLORIDE / CHOLESTEROL / CREATINE PHOSPHOKINASE / CREATININE / GLUCOSE / LACTATE DEHYDROGENASE / LIPASE / PHOSPHORUS / POTASSIUM / SODIUM / TOTAL BILIRUBIN / TOTAL PROTEIN / URIC ACID: tissue Plasma
[1] = 0 mg/kg, 72 h, dose level Control, time 3 day
[2] = 0 mg/kg, 120 h, dose level Control, time 5 day
[3] = 30 mg/kg, 72 h, dose level Low, time 3 day
[4] = 30 mg/kg, 120 h, dose level Low, time 5 day

**Q.** What does the source list for `Cc1ccc(-c2cc(C(F)(F)F)nn2-c2ccc(S(N)(=O)=O)cc2)cc1` [CELECOXIB]?
**A.** ABSOLUTE BASOPHIL [1]: 0 CELLS/uL; ABSOLUTE EOSINOPHIL [1]: 104.17 CELLS/uL; ABSOLUTE LYMPHOCYTE [1]: 14547 CELLS/uL; ABSOLUTE MONOCYTE [1]: 292 CELLS/uL; ABSOLUTE SEGMENTED NEUTROPHIL [1]: 1640.17 CELLS/uL; BASOPHIL [1]: 0%; EOSINOPHIL [1]: 0.67%; ERYTHROCYTE COUNT [1]: 5.35 x10E6/uL; HEMATOCRIT [1]: 33.67%; HEMOGLOBIN [1]: 13.38 G/DL; LEUKOCYTE COUNT [1]: 16.58 x10E3/uL; LYMPHOCYTE [1]: 87.5%; MEAN CORPUSCULAR HEMOGLOBIN [1]: 25.05 pg; MEAN CORPUSCULAR HEMOGLOBIN CONCENTRATION [1]: 39.78 G/DL; MEAN CORPUSCULAR VOLUME [1]: 62.97 fL; MONOCYTE [1]: 1.83%; NEUTROPHIL [1]: 10%; NUCLEATED RED BLOOD CELLS [1]: 0 /100WBC; PLATELET COUNT [1]: 1274.5 x10E3/uL; ALANINE AMINOTRANSFERASE [1]: 76.83 u/L; ALBUMIN [1]: 3.97 G/DL; ALKALINE PHOSPHATASE [1]: 347 u/L; ASPARTATE AMINOTRANSFERASE [1]: 97.17 u/L; BLOOD UREA NITROGEN [1]: 14.33 mg/dL; CARBON DIOXIDE [1]: 25.5 mmol/L; CHLORIDE [1]: 100.33 MEQ/L; CHOLESTEROL [1]: 68.67 mg/dL; CREATINE PHOSPHOKINASE [1]: 659.17 u/L; CREATININE [1]: 0.32 mg/dL; GLUCOSE [1]: 160.67 mg/dL; LACTATE DEHYDROGENASE [1]: 271.5 u/L; LIPASE [1]: 11.67 u/L; PHOSPHORUS [1]: 10.65 mg/dL; POTASSIUM [1]: 5.95 MEQ/L; SODIUM [1]: 139.65 MEQ/L; TOTAL BILIRUBIN [1]: 0.2 mg/dL; TOTAL PROTEIN [1]: 5.72 G/DL; URIC ACID [1]: 1.37 mg/dL; ABSOLUTE BASOPHIL [2]: 0 CELLS/uL; ABSOLUTE EOSINOPHIL [2]: 331.5 CELLS/uL; ABSOLUTE LYMPHOCYTE [2]: 15021.67 CELLS/uL; ABSOLUTE MONOCYTE [2]: 376.5 CELLS/uL; ABSOLUTE SEGMENTED NEUTROPHIL [2]: 3070.33 CELLS/uL; BASOPHIL [2]: 0%; EOSINOPHIL [2]: 1.83%; ERYTHROCYTE COUNT [2]: 5.24 x10E6/uL; HEMATOCRIT [2]: 33.22%; HEMOGLOBIN [2]: 13.2 G/DL; LEUKOCYTE COUNT [2]: 18.8 x10E3/uL; LYMPHOCYTE [2]: 79.67%; MEAN CORPUSCULAR HEMOGLOBIN [2]: 25.17 pg; MEAN CORPUSCULAR HEMOGLOBIN CONCENTRATION [2]: 39.73 G/DL; MEAN CORPUSCULAR VOLUME [2]: 63.38 fL; MONOCYTE [2]: 2%; NEUTROPHIL [2]: 16.5%; NUCLEATED RED BLOOD CELLS [2]: 0 /100WBC; PLATELET COUNT [2]: 1142.67 x10E3/uL; ALANINE AMINOTRANSFERASE [2]: 52.5 u/L; ALBUMIN [2]: 3.9 G/DL; ALKALINE PHOSPHATASE [2]: 284.5 u/L; ASPARTATE AMINOTRANSFERASE [2]: 81.33 u/L; BLOOD UREA NITROGEN [2]: 16 mg/dL; CARBON DIOXIDE [2]: 25.33 mmol/L; CHLORIDE [2]: 99.5 MEQ/L; CHOLESTEROL [2]: 74.83 mg/dL; CREATINE PHOSPHOKINASE [2]: 448.33 u/L; CREATININE [2]: 0.37 mg/dL; GLUCOSE [2]: 164.17 mg/dL; LACTATE DEHYDROGENASE [2]: 290.67 u/L; LIPASE [2]: 6.83 u/L; PHOSPHORUS [2]: 11.5 mg/dL; POTASSIUM [2]: 6.28 MEQ/L; SODIUM [2]: 139.5 MEQ/L; TOTAL BILIRUBIN [2]: 0.13 mg/dL; TOTAL PROTEIN [2]: 5.55 G/DL; URIC ACID [2]: 1.12 mg/dL; ABSOLUTE BASOPHIL [3]: 0 CELLS/uL; ABSOLUTE EOSINOPHIL [3]: 104 CELLS/uL; ABSOLUTE LYMPHOCYTE [3]: 15747.67 CELLS/uL; ABSOLUTE MONOCYTE [3]: 360 CELLS/uL; ABSOLUTE SEGMENTED NEUTROPHIL [3]: 1788.33 CELLS/uL; BASOPHIL [3]: 0%; EOSINOPHIL [3]: 0.67%; ERYTHROCYTE COUNT [3]: 5.61 x10E6/uL; HEMATOCRIT [3]: 36.13%; HEMOGLOBIN [3]: 13.97 G/DL; LEUKOCYTE COUNT [3]: 18 x10E3/uL; LYMPHOCYTE [3]: 87.33%; MEAN CORPUSCULAR HEMOGLOBIN [3]: 24.9 pg; MEAN CORPUSCULAR HEMOGLOBIN CONCENTRATION [3]: 38.63 G/DL; MEAN CORPUSCULAR VOLUME [3]: 64.4 fL; MONOCYTE [3]: 2%; NEUTROPHIL [3]: 10%; NUCLEATED RED BLOOD CELLS [3]: 0.33 /100WBC; PLATELET COUNT [3]: 1151.67 x10E3/uL; ALANINE AMINOTRANSFERASE [3]: 77 u/L; ALBUMIN [3]: 4.2 G/DL; ALKALINE PHOSPHATASE [3]: 443 u/L; ASPARTATE AMINOTRANSFERASE [3]: 79.33 u/L; BLOOD UREA NITROGEN [3]: 10.67 mg/dL; CARBON DIOXIDE [3]: 22.67 mmol/L; CHLORIDE [3]: 102.67 MEQ/L; CHOLESTEROL [3]: 51 mg/dL; CREATINE PHOSPHOKINASE [3]: 260 u/L; CREATININE [3]: 0.12 mg/dL; GLUCOSE [3]: 164.33 mg/dL; LACTATE DEHYDROGENASE [3]: 234.67 u/L; LIPASE [3]: 10.67 u/L; PHOSPHORUS [3]: 11.63 mg/dL; POTASSIUM [3]: 6.08 MEQ/L; SODIUM [3]: 142.6 MEQ/L; TOTAL BILIRUBIN [3]: 0.13 mg/dL; TOTAL PROTEIN [3]: 6.07 G/DL; URIC ACID [3]: 1.27 mg/dL; ABSOLUTE BASOPHIL [4]: 0 CELLS/uL; ABSOLUTE EOSINOPHIL [4]: 252.67 CELLS/uL; ABSOLUTE LYMPHOCYTE [4]: 15009.33 CELLS/uL; ABSOLUTE MONOCYTE [4]: 640.67 CELLS/uL; ABSOLUTE SEGMENTED NEUTROPHIL [4]: 3164 CELLS/uL; BASOPHIL [4]: 0%; EOSINOPHIL [4]: 1.33%; ERYTHROCYTE COUNT [4]: 5.76 x10E6/uL; HEMATOCRIT [4]: 36.13%; HEMOGLOBIN [4]: 14 G/DL; LEUKOCYTE COUNT [4]: 19.07 x10E3/uL; LYMPHOCYTE [4]: 78.67%; MEAN CORPUSCULAR HEMOGLOBIN [4]: 24.33 pg; MEAN CORPUSCULAR HEMOGLOBIN CONCENTRATION [4]: 38.73 G/DL; MEAN CORPUSCULAR VOLUME [4]: 62.87 fL; MONOCYTE [4]: 3.33%; NEUTROPHIL [4]: 16.67%; NUCLEATED RED BLOOD CELLS [4]: 0 /100WBC; PLATELET COUNT [4]: 1265.67 x10E3/uL; ALANINE AMINOTRANSFERASE [4]: 70.67 u/L
